These results are taken from patent US9789181B2, “PAN-DR binding polypeptides and uses thereof” (Epimmune Inc., priority 2009, dated 2017).

Where no end group is shown, it is not given here.

The target in one experiment is HLA DRB1 *0701 (Homo sapiens, UniProt P01903+P01911, A100R/A102G/A103Q/D57E/D86V/E43K/F76Y/K127E/L162R/M171V/P40G/Q125H/Q99D/R33Q/R42Y/R54Q/S133A/S66F/T210M/V115G/Y107V/Y59L/Y89S). The experiment in a line: IC50nM to purified HLA | DRB1 *0701. On the procedure:
(§1) Table printed on a drawing sheet, FIG. 1 (contd.)
Head of the field: IC50nM to purified HLA | DRB1 *0701
(§2) First copying reader's note: Continued from an earlier sheet of FIG. 1; decimal commas as printed, analog names encode substituted residues and positions, and some values are printed in italics or bold and some SEQ ID NOs underlined without a legend on this sheet.
Where the first naming reader finds the target: head: IC50nM to purified HLA | DRB1 *0701

The next experiment concerns the target HLA DRB4 *0101 (Homo sapiens, UniProt P01903+P13762, G164S). The experiment in a line: IC50nM to purified HLA | DRB4 *0101. On the procedure: as §1
Head of the field: IC50nM to purified HLA | DRB4 *0101
as §2
Where the first naming reader finds the target: head: IC50nM to purified HLA | DRB4 *0101

A further experiment deals with HLA DRB5 *0101 (Homo sapiens, UniProt P01903+Q30154). The experiment in a line: IC50nM to purified HLA | DRB5 *0101. On the procedure: as §1
Head of the field: IC50nM to purified HLA | DRB5 *0101
as §2
Where the first naming reader finds the target: head: IC50nM to purified HLA | DRB5 *0101

The next experiment concerns the target HLA DRB1 *0301 (Homo sapiens, UniProt P01903+P01911, A100K/A102G/A103R/A169T/F55Y/I96L/K41T/L162R/M171V/P40S/Q125H/Q178H/Q39Y/R42S/S66N/T106N/T262R/W38E/Y61H). The experiment in a line: IC50nM to purified HLA | DRB1 *0301. On the procedure:
as §1
Head of the field: IC50nM to purified HLA | DRB1 *0301
as §2
Where the first naming reader finds the target: head: IC50nM to purified HLA | DRB1 *0301

Another experiment has as its target HLA DRB1 *1101 (Homo sapiens, UniProt P01903+P01911, A100R/A169T/A87E/I96F/K41T/L162R/M171V/P40S/Q125H/Q178H/Q39Y/Q99D/R42S/S66Y/T262R/V115G/W38E). The experiment in a line: IC50nM to purified HLA | DRB1 *1101. As for the experimental part:
as §1
Head of the field: IC50nM to purified HLA | DRB1 *1101
as §2
Where the first naming reader finds the target: head: IC50nM to purified HLA | DRB1 *1101

The target in the next experiment is HLA DRB1 *0901 (Homo sapiens, UniProt P01903+P01911, A100R/A103E/D57H/D86V/F55Y/F60I/F76Y/I96F/K127E/L162R/M171V/P40D/Q125H/Q99R/R33Q/R42F/S133A/S66N/T210M/V115G/W38K/Y107V/Y59G/Y89S). The experiment in a line: IC50nM to purified HLA | DRB1 *0901. As for the experimental part:
as §1
Head of the field: IC50nM to purified HLA | DRB1 *0901
as §2
Where the first naming reader finds the target: head: IC50nM to purified HLA | DRB1 *0901

The next experiment has as its target HLA DRB1 *0101 (Homo sapiens, UniProt P01903+P01911, A100R/D57E/F55L/F60I/F76Y/I96L/L162R/M171V/P40L/Q125E/R42F/V115G/Y59C). The experiment in a line: IC50nM to purified HLA | DRB1 *0101. As for the experimental part: as §1
Head of the field: IC50nM to purified HLA | DRB1 *0101
as §2
Where the first naming reader finds the target: head: IC50nM to purified HLA | DRB1 *0101

For the next experiment, the target named is HLA DRB1 *0405 (Homo sapiens, UniProt P01903+P01911, A100R/A169T/D86S/F76Y/I96L/K127E/L162R/M171V/N62H/P40V/Q125Y/R42H/S133A/S149N/S66Y/V115G/V209L/W38E). The experiment in a line: IC50nM to purified HLA | DRB1 *0405. On the procedure:
as §1
Head of the field: IC50nM to purified HLA | DRB1 *0405
as §2
Where the first naming reader finds the target: head: IC50nM to purified HLA | DRB1 *0405

A further experiment addresses HLA DRB1 *1501 (Homo sapiens, UniProt P01903+P01911). The experiment in a line: IC50nM to purified HLA | DRB1 *1501. On the procedure:
as §1
Head of the field: IC50nM to purified HLA | DRB1 *1501
as §2
Where the first naming reader finds the target: head: IC50nM to purified HLA | DRB1 *1501

The next experiment has as its target HLA DRB1 *0404 (Homo sapiens, UniProt P01903+P01911, A100R/A169T/F76Y/I96L/K127E/L162R/M171V/N62H/P40V/Q125Y/R42H/S133A/S149N/S66Y/V209L/W38E). The experiment in a line: IC50nM to purified HLA | DRB1 *0404. On the procedure:
as §1
Head of the field: IC50nM to purified HLA | DRB1 *0404
as §2
Where the first naming reader finds the target: head: IC50nM to purified HLA | DRB1 *0404

The target of a further experiment is HLA DRB1 *0802 (Homo sapiens, UniProt P01903+P01911, A100R/A103L/A169T/F76Y/H45Y/I96F/K41T/L162R/M171V/P40S/Q125H/Q178H/Q39Y/Q99D/R218S/R42G/S66Y/V115G/W38E). The experiment in a line: IC50nM to purified HLA | DRB1 *0802. On the procedure: as §1
Head of the field: IC50nM to purified HLA | DRB1 *0802
as §2
Where the first naming reader finds the target: head: IC50nM to purified HLA | DRB1 *0802

A further experiment deals with HLA DRB1 *1302 (Homo sapiens, UniProt P01903+P01911, A100E/A169T/K41T/L162R/M171V/P40S/Q125H/Q178H/Q39Y/Q99D/R42S/S66N/T262R/V115G/W38E/Y61H). The experiment in a line: IC50nM to purified HLA | DRB1 *1302. As for the experimental part: as §1
Sequence of HLA DRB1 *1302 (P01903 26-254 limits assumed, other chains not shown): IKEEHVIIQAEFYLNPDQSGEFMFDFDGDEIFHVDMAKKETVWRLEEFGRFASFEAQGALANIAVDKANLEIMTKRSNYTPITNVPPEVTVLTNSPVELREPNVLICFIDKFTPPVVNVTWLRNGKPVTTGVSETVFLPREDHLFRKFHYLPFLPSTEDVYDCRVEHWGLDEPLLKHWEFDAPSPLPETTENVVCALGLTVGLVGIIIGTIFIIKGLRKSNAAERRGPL
Head of the field: IC50nM to purified HLA | DRB1 *1302
as §2
Where the first naming reader finds the target: head: IC50nM to purified HLA | DRB1 *1302

The next experiment has as its target HLA DRB1 *0401 (Homo sapiens, UniProt P01903+P01911, A100K/A169T/F76Y/I96L/K127E/L162R/M171V/N62H/P40V/Q125Y/R42H/S133A/S149N/S66Y/V115G/V209L/W38E). The experiment in a line: IC50nM to purified HLA | DRB1 *0401. As for the experimental part:
as §1
Head of the field: IC50nM to purified HLA | DRB1 *0401
as §2
Where the first naming reader finds the target: head: IC50nM to purified HLA | DRB1 *0401

Sequence of HLA DRB1 *0301 (P01903 26-254 limits assumed, other chains not shown): as above
Sequence of HLA DRB4 *0101 (P01903 26-254 limits assumed): as the sequence (P01903 26-254 limits assumed, other chains not shown) above
Sequence of HLA DRB4 *0101 (P13762 whole entry G164S): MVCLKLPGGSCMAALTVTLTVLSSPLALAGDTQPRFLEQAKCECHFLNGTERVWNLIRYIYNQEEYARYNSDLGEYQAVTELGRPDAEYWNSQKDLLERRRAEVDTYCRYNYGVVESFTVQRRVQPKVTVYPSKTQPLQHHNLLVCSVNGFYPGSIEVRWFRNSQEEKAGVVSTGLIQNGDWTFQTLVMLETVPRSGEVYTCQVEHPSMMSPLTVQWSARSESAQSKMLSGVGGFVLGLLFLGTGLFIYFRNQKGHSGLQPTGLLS
Sequence of HLA DRB1 *1101 (P01903 26-254 limits assumed, other chains not shown): as the sequence (P01903 26-254 limits assumed, other chains not shown) above

For AAAIFVAAFTLHAAA [SEQ ID NO: 71], the IC50 turned out to be 206 nM against HLA DRB1 *0701; 117 nM against HLA DRB4 *0101; 21 nM against HLA DRB5 *0101; 442 nM at HLA DRB1 *0301; 12 nM against HLA DRB1 *1101; 80 nM on HLA DRB1 *0901. For the same sequence, the IC50 was found to be 12 nM against HLA DRB1 *0101, 14 nM against HLA DRB1 *0405, 9.7 nM against HLA DRB1 *1501 and 2.7 nM at HLA DRB1 *0404.
Regarding AAANFVAANTLKAEA [SEQ ID NO: 62], the IC50 against HLA DRB1 *0701 was 107 nM; at HLA DRB4 *0101, 964 nM; at HLA DRB5 *0101, 34 nM; against HLA DRB1 *0301, 1740 nM; on HLA DRB1 *1101 it was 78 nM; against HLA DRB1 *0404 it was 11 nM.
Take AAANFVAAWTLKAEA [SEQ ID NO: 59]: the IC50 against HLA DRB1 *0802 worked out at 19 nM; on HLA DRB1 *1302, 1040 nM; against HLA DRB4 *0101, 221 nM; on HLA DRB5 *0101, 15 nM; on HLA DRB1 *0301, 723 nM; against HLA DRB1 *0101 it was 1.8 nM. Further, the IC50 against HLA DRB1 *0405 turned out to be 3.8 nM; at HLA DRB1 *1501 it was 31 nM.
For the sequence AAANFVAAFTLKADA [SEQ ID NO: 57], the IC50 was found to be 4.3 nM at HLA DRB1 *0401; 74 nM at HLA DRB1 *1101; 10 nM on HLA DRB1 *0101; 13 nM at HLA DRB1 *0405; 24 nM against HLA DRB1 *1501; 12 nM on HLA DRB1 *0404.
In the case of AAANFVAAYTLKADA [SEQ ID NO: 56], the IC50 came to 22 nM at HLA DRB1 *0802; 819 nM on HLA DRB1 *1302; 1530 nM at HLA DRB1 *0301; 6.3 nM on HLA DRB1 *0401; 100 nM on HLA DRB1 *1101; 44 nM against HLA DRB1 *0901. Further, the results for the IC50 against HLA DRB1 *1501 and at HLA DRB1 *0404 were 12 nM and 15 nM, respectively.
As to AAAQFVAAYTLHAAA [SEQ ID NO: 65], the IC50 on HLA DRB1 *0802 is 5.1 nM; at HLA DRB1 *1302, 700 nM; against HLA DRB4 *0101 it was 428 nM; at HLA DRB5 *0101, 24 nM; against HLA DRB1 *0301 it was 153 nM; on HLA DRB1 *0401, 2.2 nM. Moreover, the IC50 against HLA DRB1 *1101 was determined as 17 nM; at HLA DRB1 *0901 it was 21 nM; on HLA DRB1 *0101, 4.2 nM; on HLA DRB1 *0405, 22 nM; against HLA DRB1 *1501, 3.6 nM.
With AAAIFVAANTLHAAA [SEQ ID NO: 72], the IC50 stood at 65 nM at HLA DRB1 *1302; 109 nM against HLA DRB1 *0701; 109 nM on HLA DRB4 *0101; 2.7 nM at HLA DRB1 *0401; 75 nM on HLA DRB1 *0901; 7.3 nM at HLA DRB1 *0101. The figures for the IC50 on HLA DRB1 *1501 and at HLA DRB1 *0404 were 17 nM and 4.5 nM, respectively.
Consider AAANFVAANTLKADA [SEQ ID NO: 58], for which the IC50 came out at 269 nM on HLA DRB1 *1302; 6320 nM against HLA DRB4 *0101; 9.7 nM against HLA DRB1 *0401; 109 nM on HLA DRB1 *0901; 296 nM against HLA DRB1 *1501.

What is called IC50 is the concentration that inhibits the measured activity by half. Read a low IC50 as greater potency.
